Each compound was assayed against T1, METTL3/14 (Homo sapiens, UniProt Q86U44) (assay: METTL3/14 methyltransferase assay (METTL3_14 RFMS, RapidFire mass spectrometry)). Settings: 5 nM METTL3/14, 0.2 μM RNA substrate, 0.5 μM SAM; lower limit of the assay IC50=5 nM; Compounds 1-62; read-out: METTL3_14 RFMS IC50.
T1 construct: The enzyme used was full-length his-tagged METTL3; His; made in house
Format: biochemical
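Further: recombinant His-tagged METTL3 with FLAG-tagged METTL14 from baculovirus, SAH product quantified by mass spectrometry against isotope-labelled internal standards, 60 min at room temperature, scaled between no-RNA and DMSO-only wells.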

T1 sequence (Q86U44 whole entry): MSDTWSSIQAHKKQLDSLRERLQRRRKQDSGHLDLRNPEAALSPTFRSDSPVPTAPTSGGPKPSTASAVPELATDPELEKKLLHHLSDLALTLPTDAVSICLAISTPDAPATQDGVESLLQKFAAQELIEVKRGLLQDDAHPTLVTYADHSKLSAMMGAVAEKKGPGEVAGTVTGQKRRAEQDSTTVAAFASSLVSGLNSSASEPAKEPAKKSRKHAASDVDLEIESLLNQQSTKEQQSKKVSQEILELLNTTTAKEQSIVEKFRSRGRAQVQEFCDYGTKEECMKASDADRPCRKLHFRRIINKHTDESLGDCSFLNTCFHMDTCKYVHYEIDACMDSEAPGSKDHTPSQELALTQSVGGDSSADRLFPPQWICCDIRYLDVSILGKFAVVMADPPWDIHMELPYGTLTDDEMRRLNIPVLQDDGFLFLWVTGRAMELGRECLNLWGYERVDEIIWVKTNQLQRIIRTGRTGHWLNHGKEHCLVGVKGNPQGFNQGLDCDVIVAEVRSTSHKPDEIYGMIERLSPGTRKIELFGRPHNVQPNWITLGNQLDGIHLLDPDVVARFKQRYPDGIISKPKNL
T1 sequence (Q9HCE5 whole entry partner): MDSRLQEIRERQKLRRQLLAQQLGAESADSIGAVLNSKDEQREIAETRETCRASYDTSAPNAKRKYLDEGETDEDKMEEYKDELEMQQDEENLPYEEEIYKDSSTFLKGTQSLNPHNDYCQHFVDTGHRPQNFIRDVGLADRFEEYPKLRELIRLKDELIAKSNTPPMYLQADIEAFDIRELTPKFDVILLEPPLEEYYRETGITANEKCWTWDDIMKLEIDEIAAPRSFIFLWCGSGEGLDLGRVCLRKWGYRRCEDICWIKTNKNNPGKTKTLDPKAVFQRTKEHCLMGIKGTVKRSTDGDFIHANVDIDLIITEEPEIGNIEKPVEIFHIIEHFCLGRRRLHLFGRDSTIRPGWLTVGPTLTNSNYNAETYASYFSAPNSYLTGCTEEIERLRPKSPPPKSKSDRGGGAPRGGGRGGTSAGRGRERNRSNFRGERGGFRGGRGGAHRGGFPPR

Compound	IC50
O=C(NCc1cn2cc(Br)ccc2n1)c1cccc2[nH]ncc12 [Compound 3, N-({6-bromoimidazo[1,2-a]pyridin-2-yl}methyl)-1H-indazole-4-carboxamide]	4660 nM
O=C(NCc1cn2cc(CO)ccc2n1)c1cc(=O)n2ccccc2n1 [Compound 61, N-{[6-(hydroxymethyl)imidazo[1,2-a]pyridin-2-yl]methyl}-4-oxo-4H-pyrido[1,2-a]pyrimidine-2-carboxamide]	695 nM
CC(O)c1ccc2nc(CNC(=O)c3cccc4[nH]ncc34)cn2c1 (stereo not shown) [Compound 47, N-{[6-(1-hydroxyethyl)imidazo[1,2-a]pyridin-2-yl]methyl}-1H-indazole-4-carboxamide]	3980 nM
O=C(NCc1cn2cc(CNCCO)ccc2n1)c1cccc2[nH]ncc12 [Compound 45]	2580 nM
C=Cc1ccc2nc(CNC(=O)c3cc(=O)n4ccccc4n3)cn2c1 [Compound 58, N-({6-ethenylimidazo[1,2-a]pyridin-2-yl}methyl)-4-oxo-4H-pyrido[1,2-a]pyrimidine-2-carboxamide]	299 nM
O=C(NCc1cn2cc(CO)ccc2n1)c1cccc2[nH]ncc12 [Compound 42]	6260 nM
N#Cc1ccc2nc(CNC(=O)c3cc(=O)n4ccccc4n3)cn2c1 [Compound 18, N-({6-cyanoimidazo[1,2-a]pyridin-2-yl}methyl)-4-oxo-4H-pyrido[1,2-a]pyrimidine-2-carboxamide]	1860 nM
O=C(NCc1cn2cc(C(O)c3ccccc3)ccc2n1)c1cccc2[nH]ncc12 (stereo not shown) [Compound 48, N-({6-[hydroxy(phenyl)methyl]imidazo [1,2-a]pyridin-2-yl}methyl)-1H-indazole-4-carboxamide]	2040 nM
O=C(NCc1cn2ccc(Br)cc2n1)c1cc(=O)n2ccccc2n1 [Compound 29, N-({7-bromoimidazo[1,2-a]pyridin-2-yl}methyl)-4-oxo-4H-pyrido[1,2-a]pyrimidine-2-carboxamide]	2780 nM
Cc1ccc2nc(CNC(=O)c3cc(-c4ccn[nH]4)cc4[nH]ncc34)cn2c1 [Compound 8, N-({6-methylimidazo[1,2-a]pyridin-2-yl}methyl)-6-(1H-pyrazol-5-yl)-1H-indazole-4-carboxamide]	4560 nM

Same assay, conditions: 5 nM METTL3/14, 0.2 μM RNA substrate, 0.5 μM SAM; lower limit of the assay IC50=5 nM; Compounds 63-265; read-out: METTL3_14 RFMS IC50

Compound	IC50
O=C(NCc1cn2cc(CNCC3CCCCC3)ccc2n1)c1cc(=O)c2ccc(Cl)cc2o1 [Compound 171, 7-chloro-N-[(6-{[(cyclohexylmethyl)amino]methyl}imidazo[1,2-a]pyridin-2-yl)methyl]-4-oxo-4H-chromene-2-carboxamide]	293 nM
CC1(C)COC(CNCc2ccc3nc(CNC(=O)c4cc(=O)n5ccccc5n4)cn3c2)C1 (stereo not shown) [Compound 147, N-{[6-({[(4,4-dimethyloxolan-2-yl)methyl]amino}methyl)imidazo[1,2-a]pyridin-2-yl]methyl}-4-oxo-4H-pyrido[1,2-a] pyrimidine-2-carboxamide]	224 nM
Cc1ccc2nc(CNC(=O)c3cc(=O)n4c(n3)CCCC4)cn2c1 [Compound 64, N-({6-methylimidazo [1,2-a]pyridin-2-yl}methyl)-4-oxo-4H,6H,7H,8H, 9H-pyrido[1,2-a]pyrimidine-2-carboxamide]	7330 nM
O=C(NCc1cn2cc(CNCC3CCCCC3)ccc2n1)c1cc(=O)c2cccc(Cl)c2o1 [Compound 185, 8-chloro-N-[(6-{[(cyclohexylmethyl)amino]methyl}imidazo[1,2-a]pyridin-2-yl)methyl]-4-oxo-4H-chromene-2-carboxamide]	1070 nM
CC(C)(C)CNCc1ccc2nc(CNC(=O)c3cc(=O)c4ccccc4o3)cn2c1 [Compound 265, N-[(6-{[(2,2-dimethylpropyl)amino]methyl}imidazo[1,2-a]pyridin-2-yl)methyl]-4-oxo-4H-chromene-2-carboxamide]	50.6 nM
O=C(NCc1cn2cc(CNCCOC(F)(F)F)ccc2n1)c1cc(=O)n2ccccc2n1 [Compound 94, 4-oxo-N-{[6-({[2-(trifluoromethoxy)ethyl]amino}methyl)imidazo [1,2-a]pyridin-2-yl]methyl}-4H-pyrido[1,2-a] pyrimidine-2-carboxamide]	131 nM
O=C(NCc1cn2cc(CNCC3CCOCC3)ccc2n1)c1cc(=O)n2ccccc2n1 [Compound 82, N-{[6-({[(oxan-4-yl)methyl]amino}methyl)imidazo[1,2-a]pyridin-2-yl]methyl}-4-oxo-4H-pyrido[1,2-a] pyrimidine-2-carboxamide]	354 nM
CC1(CNCc2ccc3nc(CNC(=O)c4cc(=O)n5ccccc5n4)cn3c2)CCCO1 (stereo not shown) [Compound 160, N-{[6-({[(2-methyloxolan-2-yl)methyl]amino}methyl)imidazo [1,2-a]pyridin-2-yl]methyl}-4-oxo-4H-pyrido [1,2-a]pyrimidine-2-carboxamide]	93.2 nM
O=C(NCc1cn2cc(CNCC3CCC(F)(F)CC3)ccc2n1)c1cc(=O)n2ccccc2n1 [Compound 101, N-{[6-({[(4,4-difluorocyclohexyl)methyl]amino}methyl)imidazo [1,2-a]pyridin-2-yl]methyl}-4-oxo-4H-pyrido [1,2-a]pyrimidine-2-carboxamide]	18.1 nM
O=C(NCc1cn2cc(CN3CCCC(F)(F)C3)ccc2n1)c1cc(=O)n2ccccc2n1 [Compound 208, N-({6-[(3,3-difluoropiperidin-1-yl)methyl]imidazo[1,2-a]pyridin-2-yl}methyl)-4-oxo-4H-pyrido [1,2-a]pyrimidine-2-carboxamide]	5730 nM
O=C(NCc1cn2ccc(CNCC3CC3)cc2n1)c1cc(=O)n2ccccc2n1 [Compound 224, N-[(7-{[(cyclopropylmethyl)amino]methyl}imidazo[1,2-a]pyridin-2-yl)methyl]-4-oxo-4H-pyrido[1,2-a]pyrimidine-2-carboxamide]	1870 nM
O=C(NCc1cn2cc(CNCc3ccccc3)ccc2n1)c1cc(=O)c2ccccc2o1 [Compound 221, N-({6-[(benzylamino)methyl]imidazo[1,2-a]pyridin-2-yl}methyl)-4-oxo-4H-chromene-2-carboxamide]	46.7 nM
O=C(NCc1cn2cc(CNC3(C4CC4)CC3)ccc2n1)c1cc(=O)n2ccccc2n1 [Compound 197, N-({6-[({[1,1′-bi(cyclopropane)]-1-yl}amino)methyl]imidazo [1,2-a]pyridin-2-yl}methyl)-4-oxo-4H-pyrido [1,2-a]pyrimidine-2-carboxamide]	84.8 nM
O=C(NCc1cn2cc(CNCC3CCCCN3)ccc2n1)c1cc(=O)n2ccccc2n1 (stereo not shown) [Compound 240, 4-oxo-N-{[6-({[(piperidin-2-yl)methyl]amino}methyl)imidazo[1,2-a]pyridin-2-yl]methyl}-4H-pyrido[1,2-a]pyrimidine-2-carboxamide]	260 nM
CN(Cc1ccc2nc(CNC(=O)c3cc(=O)n4ccccc4n3)cn2c1)CC(C)(C)C [Compound 205, N-[(6-{[(2,2-dimethylpropyl) (methyl)amino]methyl}imidazo [1,2-a]pyridin-2-yl)methyl]-4-oxo-4H-pyrido [1,2-a]pyrimidine-2-carboxamide]	197 nM
C[C@@H](NCc1ccc2nc(CNC(=O)c3cc(=O)n4ccccc4n3)cn2c1)c1ccccc1 [Compound 75, 4-oxo-N-{[6-({[(1R)-1-phenylethyl]amino}methyl)imidazo[1,2-a]pyridin-2-yl]methyl}-4H-pyrido[1,2-a]pyrimidine-2-carboxamide]	48.1 nM
O=C(NCc1cn2cc(CN3CCC(Cc4ccccc4)CC3)ccc2n1)c1cc(=O)n2ccccc2n1 [Compound 155, N-({6-[(4-benzylpiperidin-1-yl)methyl]imidazo[1,2-a]pyridin-2-yl}methyl)-4-oxo-4H-pyrido [1,2-a]pyrimidine-2-carboxamide]	177 nM
O=C(NCc1cn2cc(CNCCCC(F)(F)F)ccc2n1)c1cc(=O)n2ccccc2n1 [Compound 81, 4-oxo-N-[(6-{[(4,4,4-trifluorobutyl)amino]methyl}imidazo[1,2-a]pyridin-2-yl)methyl]-4H-pyrido[1,2-a]pyrimidine-2-carboxamide]	27.7 nM
O=C(NCc1cn2cc(CNC3CCCCC3)ccc2n1)c1cc(=O)n2ccccc2n1 [Compound 86, N-({6-[(cyclohexyl-amino)methyl]imidazo[1,2-a]pyridin-2-yl}methyl)-4-oxo-4H-pyrido[1,2-a]pyrimidine-2-carboxamide]	23.1 nM
CCCNCc1ccc2nc(CNC(=O)c3cc(=O)n4ccccc4n3)cn2c1 [Compound 149, 4-oxo-N-({6-[(propylamino)methyl]imidazo [1,2-a]pyridin-2-yl}methyl)-4H-pyrido[1,2-a] pyrimidine-2-carboxamide]	40.2 nM
CC1(C)CCOC1CNCc1ccc2nc(CNC(=O)c3cc(=O)n4ccccc4n3)cn2c1 (stereo not shown) [Compound 150, N-{[6-({[(3,3-dimethyloxolan-2-yl)methyl]amino}methyl)imidazo[1,2-a]pyridin-2-yl]methyl}-4-oxo-4H-pyrido[1,2-a] pyrimidine-2-carboxamide]	29.9 nM
O=C(NCc1cn2cc(CNCC3CCCCC3)ccc2n1)c1cc(=O)c2ccc(F)cc2o1 [Compound 180, N-[(6-{[(cyclohexylmethyl)amino]methyl}imidazo [1,2-a]pyridin-2-yl)methyl]-7-fluoro-4-oxo-4H-chromene-2-carboxamide]	889 nM

Same assay, conditions: 5 nM METTL3/14, 0.2 μM RNA substrate, 0.5 μM SAM; lower limit of the assay IC50=5 nM; Compounds 266-351; read-out: METTL3_14 RFMS IC50

Compound	IC50
O=C(NCc1cn2cc(CN3CC4CC3CO4)ccc2n1)c1cc(=O)n2ccccc2n1 (stereo not shown) [Compound 349, N-{[6-({2-oxa-5-azabicyclo[2.2.1]heptan-5-yl}methyl)imidazo[1,2-a]pyridin-2-yl]methyl}-4-oxo-4H-pyrido[1,2-a]pyrimidine-2-carboxamide]	303 nM
CC1(C)CC(CNCc2ccc3nc(CNC(=O)c4cc(=O)n5ccccc5n4)cn3c2)C1 [Compound 291, N-[[6-[[(3,3-dimethylcyclobutyl)methylamino]methyl]imidazo[1,2-a]pyridin-2-yl]methyl]-4-oxo-pyrido[1,2-a]pyrimidine-2-carboxamide]	62.2 nM
